According to article PMC3559838 (PLoS ONE, 2013):
Where two headings read alike, the source gives them in different places.

Key:
[1] = design: method as in protocol pharmaceutical information; details: ref protocol pharmaceutical information; cited from earlier work
UGT1A1 = target: T1, UGT1A1 (Homo sapiens, UniProt P22309); test: UGT supersome screening and kinetic analysis; format: in vitro ADME; details: 37°C
T1 sequence (P22309 26-533): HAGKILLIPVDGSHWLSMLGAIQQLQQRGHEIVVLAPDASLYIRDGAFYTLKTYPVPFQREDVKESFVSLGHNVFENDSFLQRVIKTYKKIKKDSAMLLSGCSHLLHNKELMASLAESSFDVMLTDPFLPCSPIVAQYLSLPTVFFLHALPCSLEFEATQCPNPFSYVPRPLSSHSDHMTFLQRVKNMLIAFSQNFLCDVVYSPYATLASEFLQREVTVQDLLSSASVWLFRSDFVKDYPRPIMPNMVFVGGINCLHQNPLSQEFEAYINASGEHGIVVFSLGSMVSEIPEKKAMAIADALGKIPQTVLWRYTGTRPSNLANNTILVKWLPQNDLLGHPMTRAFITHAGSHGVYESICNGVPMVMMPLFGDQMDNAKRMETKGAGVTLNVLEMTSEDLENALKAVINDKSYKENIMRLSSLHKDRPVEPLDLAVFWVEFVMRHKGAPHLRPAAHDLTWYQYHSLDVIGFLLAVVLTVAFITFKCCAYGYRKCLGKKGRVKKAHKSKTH
Protocol: Plots of substrate concentration, S (X axis) versus v (Y axis) were then constructed. Km and Vmax were calculated using the Michaelis-Menten equation (GraphPad software, Inc., San Diego, CA, USA).

[2] = tested on: murine P388 leukemia cells; design: method as in Investigator's Brochure, 2004; details: P388 IP model, ref Investigator's Brochure, 2004, cited from earlier work
[3] = human, in vivo; cited from earlier work
[4] = design: method as in Investigator's Brochure, 2004; details: rats, 100 mg/kg/day, both formulations; ref Investigator's Brochure, 2004; cited from earlier work
CYP2C8 = tested on: CYP2C8; design: method as in protocol pharmaceutical information; details: ref protocol pharmaceutical information; cited from earlier work
UGT1A8 = target: T2, UGT1A8 (Homo sapiens, UniProt Q9HAW9); test: UGT supersome screening; format: in vitro ADME; details: UGT1A8 supersomes, 10 µM belinostat, 37°C
T2 construct: purchased BD Gentest
Protocol: (§1) A typical incubation consisted of 50 µg of UGT, 2 mM UDPGA (UGT Reaction Solution A), 50 mM Tris-HCl, 8 mM MgCl2 and 0.025 mg/ml alamethicin (UGT Reaction Solution B) in a final incubation volume of 100 µL. Before the addition of substrate, the incubation mixture was prewarmed and equilibrated for 5 min at 37°C. […] The incubation mixture was vortexed and centrifuged (10,060 g) at 4°C for 10 min, and the supernatants were analyzed. Insect microsomes without UGT cDNA served as negative control. […] Incubations were performed as described above. Three independent experiments were performed for kinetic analysis.

UGT2B4 = target: T3, UGT2B4 (Homo sapiens, UniProt P06133); test: UGT supersome screening; format: in vitro ADME; details: UGT2B4 supersomes, 10 µM belinostat, 37°C
T3 construct: purchased BD Gentest
Protocol: as §1

UGT1A3 = target: T4, UGT1A3 (Homo sapiens, UniProt P35503); test: UGT supersome screening; format: in vitro ADME; details: UGT1A3 supersomes, 10 µM belinostat, 37°C
T4 construct: purchased BD Gentest
Protocol: as §1

UGT2B7 = target: T5, UGT2B7 (Homo sapiens, UniProt P16662); test: UGT supersome screening; format: in vitro ADME; details: UGT2B7 supersomes, 10 µM belinostat, 37°C
T5 construct: purchased BD Gentest
Protocol: as §1

[5] = tested on: histone H4 acetylation in peripheral blood mononuclear cells (PBMC) and tumor tissue; design: method as in Plumb et al., 2003; details: ref Plumb et al., 2003, cited from earlier work
[6] = tested on: human A2780 ovarian cancer cells; design: method as in Plumb et al., 2003; Investigator's Brochure, 2004; details: A2780 xenografts, 10 mg/kg/day IP once daily for 7 days; ref Plumb et al., 2003; Investigator's Brochure, 2004; cited from earlier work
[7] = cited from earlier work
CYP1A2 = tested on: CYP1A2; design: method as in protocol pharmaceutical information; details: ref protocol pharmaceutical information; cited from earlier work
[8] = 150 mg/m2, 30-minute IV infusion, ref phase 1 study currently underway
[9] = 300 mg/m2, 30-minute IV infusion, ref phase 1 study currently underway
[10] = 600 mg/m2, 30-minute IV infusion, ref phase 1 study currently underway
[11] = 900 mg/m2, 30-minute IV infusion, ref phase 1 study currently underway
[12] = 1200 mg/m2, 30-minute IV infusion, ref phase 1 study currently underway

T5 sequence (P16662 24-529): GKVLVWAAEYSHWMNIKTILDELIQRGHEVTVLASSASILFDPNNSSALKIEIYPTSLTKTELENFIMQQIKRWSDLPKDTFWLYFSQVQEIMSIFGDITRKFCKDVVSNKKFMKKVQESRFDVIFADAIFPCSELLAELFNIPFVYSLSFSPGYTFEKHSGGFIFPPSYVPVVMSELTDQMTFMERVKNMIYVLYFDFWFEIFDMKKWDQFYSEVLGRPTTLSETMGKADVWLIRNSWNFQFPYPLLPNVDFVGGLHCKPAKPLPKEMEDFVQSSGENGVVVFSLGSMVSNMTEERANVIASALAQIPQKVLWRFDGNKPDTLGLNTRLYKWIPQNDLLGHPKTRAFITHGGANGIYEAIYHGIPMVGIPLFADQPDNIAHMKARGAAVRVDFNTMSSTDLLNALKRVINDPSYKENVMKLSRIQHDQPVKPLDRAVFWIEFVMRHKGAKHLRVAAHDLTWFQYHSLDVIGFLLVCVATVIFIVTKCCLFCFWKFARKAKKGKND
T4 sequence (P35503 29-534): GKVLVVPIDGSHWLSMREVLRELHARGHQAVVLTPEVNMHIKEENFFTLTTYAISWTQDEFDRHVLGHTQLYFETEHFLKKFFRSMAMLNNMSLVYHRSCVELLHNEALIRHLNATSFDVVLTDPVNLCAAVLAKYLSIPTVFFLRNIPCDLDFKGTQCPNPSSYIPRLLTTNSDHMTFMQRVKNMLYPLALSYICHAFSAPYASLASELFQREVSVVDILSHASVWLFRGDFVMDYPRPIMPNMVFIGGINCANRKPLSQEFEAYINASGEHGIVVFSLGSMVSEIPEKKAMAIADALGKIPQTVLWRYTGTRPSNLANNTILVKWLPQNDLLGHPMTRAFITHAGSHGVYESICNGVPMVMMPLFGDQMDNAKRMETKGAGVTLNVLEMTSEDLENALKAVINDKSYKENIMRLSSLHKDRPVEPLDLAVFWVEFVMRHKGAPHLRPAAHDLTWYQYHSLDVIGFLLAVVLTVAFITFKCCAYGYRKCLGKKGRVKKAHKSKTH
T3 sequence (P06133 24-528): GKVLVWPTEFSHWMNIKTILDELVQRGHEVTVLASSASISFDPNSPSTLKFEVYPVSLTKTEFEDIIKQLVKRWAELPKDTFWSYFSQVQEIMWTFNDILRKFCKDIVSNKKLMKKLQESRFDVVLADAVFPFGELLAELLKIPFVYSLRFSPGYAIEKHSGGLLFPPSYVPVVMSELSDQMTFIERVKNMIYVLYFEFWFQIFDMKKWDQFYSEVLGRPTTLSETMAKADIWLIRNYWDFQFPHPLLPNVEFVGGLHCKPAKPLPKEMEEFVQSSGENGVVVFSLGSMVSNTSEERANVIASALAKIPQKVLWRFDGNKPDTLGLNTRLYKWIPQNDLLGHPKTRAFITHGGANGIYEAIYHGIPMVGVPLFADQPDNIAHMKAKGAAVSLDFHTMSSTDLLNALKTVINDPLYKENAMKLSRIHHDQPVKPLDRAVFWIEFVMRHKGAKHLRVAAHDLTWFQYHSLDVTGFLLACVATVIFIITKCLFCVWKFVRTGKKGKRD
T2 sequence (Q9HAW9 26-530): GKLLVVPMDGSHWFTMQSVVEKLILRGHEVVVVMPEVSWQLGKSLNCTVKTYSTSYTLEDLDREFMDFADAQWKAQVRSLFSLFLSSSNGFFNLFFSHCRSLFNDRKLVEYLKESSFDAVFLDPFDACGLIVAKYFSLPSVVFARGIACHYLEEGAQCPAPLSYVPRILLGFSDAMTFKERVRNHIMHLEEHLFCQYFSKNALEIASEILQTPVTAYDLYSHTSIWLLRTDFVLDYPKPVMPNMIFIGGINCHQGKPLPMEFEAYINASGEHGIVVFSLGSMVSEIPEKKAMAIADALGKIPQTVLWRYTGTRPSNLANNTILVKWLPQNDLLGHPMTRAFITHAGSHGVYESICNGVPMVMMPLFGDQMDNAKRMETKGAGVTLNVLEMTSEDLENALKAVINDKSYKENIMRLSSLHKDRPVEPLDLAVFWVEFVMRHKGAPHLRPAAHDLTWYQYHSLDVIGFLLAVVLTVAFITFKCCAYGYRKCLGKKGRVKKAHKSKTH

In the case of `O=C(/C=C/c1cccc(S(=O)(=O)Nc2ccccc2)c1)NO` [Belinostat, N-hydroxy-3-(phenylsulphamoylphenyl) acrylamide], the light stability [1] is listed as “no obvious light instability”, the “belinostat converted to belinostat-G” value (UGT1A1; 2 h incubation with UGT1A1 supersomes) is listed as 73.6% and the “belinostat converted to belinostat-G” value (UGT1A1; 4 h incubation with UGT1A1 supersomes) is listed as 89.4%. For the same compound, the “glucuronidation of belinostat by UGT isoform” value (UGT1A1; UGT1A1 supersomes, 10 µM belinostat) was “glucuronidated belinostat significantly”, the “survival, 40 mg/kg/day × 5 days (from day 3) versus same total dose (200 mg/kg) as bolus on day 3” value ([2]; P<0.0001) was “superior” and the “survival, 20 mg/kg/day for 10 days versus 40 mg/kg every two days (cumulative 200 mg/kg)” value ([2]; P=0.009) was “better survival”. For the same compound, the “survival rates, every second day three times versus every day for 5 days (cumulative 270 mg/kg)” value ([2]; p=0.49) was “no significant differences”, the “survival, daily dose (20, 40, or 80 mg/kg for 5 days) fractionated into two doses per day versus one daily dose” value [2] was “did not improve survival” and the maximum tolerable dose [3] was 1200 mg/m^2. For the same compound, the systemic effects [4] was “mild”, the CYP2C8 inhibition (CYP2C8) was “weak to moderate inhibitor” and the “metabolism by UGT isoform” value (UGT1A8) was “less than 3%”. The “metabolism by UGT isoform” value (UGT2B4) was “less than 3%”, the “metabolism by UGT isoform” value (UGT1A3) was “less than 3%” and the “metabolism by UGT isoform” value (UGT2B7) was “less than 3%”. For the same compound, the “histone H4 acetylation in PBMC” value ([5]; 1 and 2 hours after a single IP injection of 40 mg/kg) was “Hyperacetylated histone H4 was detected”, the “time at which acetylation returned to baseline levels” value ([5]; PBMC, single IP injection of 40 mg/kg) was ≤ 3 h and the “dose with marked acetylation in both PBMCs and tumor tissue” value ([5]; mice) was ≥ 10 mg/kg. The tumor growth [6] was “Delay of tumor growth was observed”, the Cmax [7, 8] was 6565 ± 2158 ng/mL and the t1/2 [7, 8] was 46.6 ± 8.7 min. The Cmax [7, 9] was 15505 ± 6245 ng/mL, the t1/2 [7, 9] was 44.6 ± 8.0 min and the Cmax [7, 10] was 31177 ± 8968 ng/mL. The t1/2 [7, 10] was 43.4 ± 6.7 min, the “dose limiting toxicity (DLT)” value ([7]; 600 mg/m2/d, six patients, ref on-going phase 1) was “DLT of severe fatigue” and the Cmax [7, 11] was 53779 ± 6381 ng/mL. The t1/2 [7, 11] was 54.2 ± 8.7 min, the Cmax [7, 12] was 52362 ± 12724 ng/mL and the t1/2 [7, 12] was 85.5 ± 19.6 min. The tolerability ([7]; doses ranging from 150 – 1200 mg/m2, ref phase 1 study currently underway) was “generally been well tolerated” and the CYP1A2 induction (CYP1A2) was “moderate inducer”.
